ChEMBL document CHEMBL1156398, “Four new bioactive pyrrole-derived alkaloids from the marine sponge Axinella brevistyla” (J Nat Prod, 2001)
Converted amounts (≈) assume the structure as drawn. The source made the active and inactive calls. The rule behind the calls is not given here.

Tests used:
Saccharomyces cerevisiae [1] = assay: Antifungal activity against Saccharomyces cerevisiae YAT2285 erg6 mutant at <1.0 ug/disk by paper disk method; assay type: functional, organism-based
L1210 = assay: Cytotoxicity against mouse L1210 cells; assay type: functional, cell-based
Saccharomyces cerevisiae [2] = assay: Antifungal activity against Saccharomyces cerevisiae YAT2285 erg6 mutant at 30 ug/disk by paper disk method; assay type: functional, organism-based
Saccharomyces cerevisiae [3] = assay: Antifungal activity against Saccharomyces cerevisiae YAT2285 erg6 mutant at 100 ug/disk by paper disk method; assay type: functional, organism-based

SMILES | Activity (Saccharomyces cerevisiae [1]) | IC50 (L1210) | Activity (Saccharomyces cerevisiae [2]) | Activity (Saccharomyces cerevisiae [3])
O=C1C=C(Br)C(=O)N1 | Active | 1.1 µg/mL (≈ 6.25 µM) |  | 
NC1=NC2c3c([nH]c(Br)c3Br)C(=O)N3C[C@H](Cl)[C@H](O)C23N1 (some centres not stated) |  | 2.5 µg/mL (≈ 5.69 µM) | Active | 
O=C1NC(=O)C(Br)=C1Br | Active | 0.66 µg/mL (≈ 2.59 µM) |  | 
C[N+]1=CN[C@H](C(=O)[O-])C[C@@]1(C)COC(=O)c1cc(Br)c[nH]1 |  |  |  | Active
